In this assay the target is T1, α1A adrenoceptors (Oryctolagus cuniculus, UniProt O02824).
T1 construct: from tissue; host or cells: rabbit liver membranes
T1 sequence (O02824 1-466): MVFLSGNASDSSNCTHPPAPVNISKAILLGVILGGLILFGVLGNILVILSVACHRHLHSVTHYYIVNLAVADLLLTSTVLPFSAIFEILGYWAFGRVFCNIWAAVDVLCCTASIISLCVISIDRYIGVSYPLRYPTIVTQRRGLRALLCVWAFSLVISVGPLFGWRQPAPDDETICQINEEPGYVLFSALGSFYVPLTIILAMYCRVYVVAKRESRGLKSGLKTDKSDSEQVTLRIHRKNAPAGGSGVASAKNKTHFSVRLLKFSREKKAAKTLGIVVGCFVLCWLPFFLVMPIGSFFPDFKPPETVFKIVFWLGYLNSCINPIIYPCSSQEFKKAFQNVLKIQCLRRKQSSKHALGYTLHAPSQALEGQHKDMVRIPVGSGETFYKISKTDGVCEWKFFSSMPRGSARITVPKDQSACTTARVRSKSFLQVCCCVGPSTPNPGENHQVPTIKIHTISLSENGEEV
The experiment in a line: Binding of [3H]-prazosin to α1A adrenoceptors (rabbit liver membranes). The protocol:
Following the protocol described previously in the literature, membrane preparations from rabbit liver homogenates were obtained. Such membrane preparations are enriched in adrenoceptor subtype α1A. The tissue obtained as described above (˜30 g) was naturally thawed, immersed in thawing solution (0.25 M sucrose, 1 mM EGTA and 5 mM Tris (pH 7.4)) freezing. Then, the tissue was transferred to a petri dish on ice containing solution for homogenizing liver (2 mM EDTA, 100 mM NaCl and 50 mM Tris (pH 7.4)) freezing. The liver was then carefully cut by ignoring the most fibrous part.
Then, the material was transferred into a beaker where with the aid of Ultra-Turrax homogenizer (speed 24,000 RPM), the tissue was homogenized with the same buffer solution at a ratio of 6 parts of the solution to 1 part material. The material was homogenized three times for 20 seconds; in the intervals the solution was allowed to stand for 1 minute on ice. Subsequently, the homogenate was subjected to centrifugation 10,000×g for 10 minutes at 4° C., yielding a supernatant which was subjected to ultracentrifugation 80,000×g for 40 minutes at 4° C. yielding a pellet. This pellet was resuspended in buffer solution without NaCl (1 mM EDTA and 50 mM Tris (pH 7.4)) and further subjected to ultracentrifugation in the same previous conditions. The pellet obtained was resuspended in this step storage solution (0.25 M sucrose, 1 mM EGTA and 5 mM Tris (pH 7.4)) with the aid of a manual type Dounce homogenizer and stored in aliquots at 300 μL liquid nitrogen. In all protocols for membrane preparations the dosage of protein were performed according to the method of LOWRY et al. (J. Biol. Chem. 193 (1):265-275, 1951).
The standardization of the assay was done as described in the literature. […] Assays were performed in triplicate.
In both assays, membrane preparations were incubated at 0° C. for 45 minutes. After the incubation period, the reaction was stopped by adding 4 mL of ice-cold wash buffer (50 mM Tris-HCl, pH 7.4) followed by rapid vacuum filtration on glass fiber filter (GMF 3 Filtrak®). The filters were washed four times with 4 ml of the same solution under vacuum to remove all free radioligand. Then the filters were dried and placed in vials containing 5 ml scintillation fluid (4% PPO, 0.1% POPOP w/v in toluene). The radioactivity retained on the filters was then determined in a liquid scintillation counter (Packard Tri-Carb 1600 TR).
This procedure aims to obtain a saturation curve with less expenditure of radioactive substances and biological materials. Since competition assays allow us to construct inhibition curves of specific binding of radioligand. The higher the concentration of competitor agent employed in this case the LDT's study, the greater the competition for specific receptors, decreasing the formation radioligand-receptor complex. This can be seen by the gradual decrease of radioactivity retained on the filters is detected by the counter liquid scintillation.
These values were converted to Ki values (competitive dissociation constant at equilibrium or inhibition constant) using the Cheng-Prusoff equation (Eq. 2).

[1] abbreviates: Table 5, Cheng-Prusoff, read-out: α1A Ki.

Each structure is given as a SMILES string. Read-outs that look alike come from different tables or passages of the source.

These results are taken from patent publication US20150011566A1, “N-PHENYLPIPERAZINE DERIVATIVES THAT ARE ANTAGONISTS OF A1A, A1D ADRENOCEPTORS AND 5-HT1A RECEPTORS FOR THE TREATMENT OF BENIGN PROSTATE HYPERPLASIA, PHARMACEUTICAL COMPOSITIONS CONTAINING THE SAME” (UNIVERSIDADE FEDERAL DO RIO DE JANEIRO-UFRJ, priority 2012, published 2015).

The term Ki denotes the dissociation constant of the complex between target and ligand, obtained from inhibition or displacement.

For the compound `CCCN1CCN(c2ccccc2OC)CC1` [LDT 63], the “α1A log IC50 (M)” value (Table 5) is reported as −6.50 ± 0.08 M. For the same compound, the Ki under setting [1] turned out to be 2.7e-07 M.

Take `CCCCCCCN1CCN(c2ccccc2OC)CC1` [LDT 67]: for the setting “Table 5”, the “α1A log IC50 (M)” value was −7.02 ± 0.12 a M. Further, the Ki under setting [1] is 8.1e-08 M.

`COc1cccc(CCN2CCN(c3ccccc3OC)CC2)c1` [LDT 3] showed an IC50 of 5.62e-09 M and a Ki of 4.63e-09 M.

Turning to `COc1ccc(CCN2CCN(c3ccccc3OC)CC2)cc1OC` [LDT 5], the IC50 is 4.47e-09 M and the affinity, expressed as Ki, was 3.67e-09 M.

Regarding `CCOc1ccccc1N1CCN(CC)CC1` [LDT 69], the “α1A log IC50 (M)” value (Table 5) is −7.41 ± 0.25 a M. In addition, under setting [1], the Ki was 3.3e-08 M.

As to `CCCCCCN1CCN(c2ccccc2OC)CC1` [LDT 66], the “α1A log IC50 (M)” value (Table 5) is given as −7.29 ± 0.11 a M. The Ki under setting [1] is 4.3e-08 M.

`CCOc1ccccc1N1CCN(CCc2ccc3c(c2)OCO3)CC1` [LDT 8] showed an IC50 of 4.57e-09 M and a Ki of 3.76e-09 M.

Compound `CCCCCN1CCN(c2ccccc2OC)CC1` [LDT 65] showed an IC50 of 7.94e-08 M and a Ki of 6.7e-08 M.

Take `COc1ccccc1N1CCN(CCC2CCCCC2)CC1` [LDT 6]: under “Table 3, Cheng-Prusoff, read-out: Ki (M) High Affinity site”, the Ki was determined as 2.16e-09 M. Where the note is “read-out: log CI50 ± EPM (M) High Affinity site (converted)”, the IC50 was 2.63e-09 M.

Consider `CCN1CCN(c2ccccc2)CC1` [LDT 39], for which the “α1A log IC50 (M)” value (Table 5) is reported as −6.36 ± 0.21 M. Also, the inhibitory constant (Ki) under setting [1] worked out at 3.74e-07 M.

`CCCCCCCCN1CCN(c2ccccc2OC)CC1` [LDT 68]: where the note is “Table 5”, the “α1A log IC50 (M)” value is on record as −7.35 ± 0.2 a M. Besides, under setting [1], the Ki stood at 3.8e-08 M.

Take `COc1ccccc1N1CCN(CCc2ccccc2)CC1` [LDT 2]: the IC50 is 1.91e-08 M and the Ki was 1.57e-08 M.

Take `CCN1CCN(c2ccccc2OC)CC1` [LDT 62]: the “α1A log IC50 (M)” value (Table 5) is given as −6.51 ± 0.2 M. The inhibitory constant (Ki) under setting [1] is 2.61e-07 M.

As for `CCN1CCN(c2ccccc2O)CC1` [LDT 70], the “α1A log IC50 (M)” value (Table 5) is −6.45 ± 0.07 M. Further, under setting [1], the Ki is 3.04e-07 M.

As to `CCCCN1CCN(c2ccccc2OC)CC1` [LDT 64], the “α1A log IC50 (M)” value (Table 5) was −6.84 ± 0.04 M. Further, the Ki under setting [1] turned out to be 1.24e-07 M.

For the compound `COc1ccc(CCN2CCN(c3ccccc3OC)CC2)cc1` [LDT 4], the IC50 is 1.07e-08 M and the Ki was found to be 8.81e-09 M.
